One test concerns mouse GMPs. Description: Ex vivo expansion of mouse bone marrow-derived cells / mouse GMPs. Type of test: cell-based. From the text: (A) Schematic of the experimental design to identify growth factors and small molecules that can promote expansion of mouse bone marrow-derived stem cells. (B) Representative phase-contrast images of mouse bone marrow cells cultured in N2B27 supplemented with the indicated small molecule inhibitors for 7 days. (C) Representative phase-contrast images of mouse bone marrow cells cultured in N2B27 supplemented with SCF plus GDC0879 or SB590885 for 3 passages. (D) Cell growth curves. Bone marrow cells isolated from C57BL/6J mice were plated into 24-well plates at a density of 2×10^5 cells/well and cultured in B7 medium supplemented with the indicated small molecules/growth factor. Cells were counted and passaged every 3 days. Data are represented as mean±SD from three independent experiments. (E) Bone marrow cells isolated from C57BL/6J mice were cultured in B7 medium supplemented with SCF/2i. Cells were passaged every 3 days. Representative phase-contrast pictures showing SCF/2i cells at different passages. (F) Cytogenetic analysis of SCF/2i cells using the GWT banding method. Bone marrow cells isolated from a female C57BL/6J mouse were expanded in SCF/2i for 8 passages before used for cytogenetic analysis. […] (G) Sequential images of individual bone marrow cells during expansion in B7 medium supplemented with SCF/2i. SCF/2i-expanded bone marrow cells were plated into 96-well plates at a density of 50 cells/well and cultured in SCF/2i. Sequential images were taken using the Keyence BZ-X710 microscopy every 24 hours. 15.7±4.0 colonies formed per well on day 4 (n=3×96). Data are represented as mean±SD from three independent experiments.
Mouse GMP derivation, expansion, and differentiation. Cells were cultured at 37° C. in a 5% CO2 water jacket incubator (Thermo Scientific). Bone marrow cells isolated from C57BL/6J, mTmG or CAG-Cas9-EGFP mice were plated into 6-well plates at a density of 2×10^6 cells/well and cultured in 2 mL B7 medium supplemented with 50 ng/mL SCF, 1 μM GDC-0879, and 10 μM SKL2001 (SCF/2i). After 3-4 days, cells were dissociated into single-cell suspension by pipetting up and down and replated into 6-well plates at a density of 2×10^6 cells/well and cultured in 2 mL B7 medium supplemented with SCF/2i. After 2 passages in SCF/2i, the majority of cells were GMPs. GMPs were routinely passaged every 3 days. To induce differentiation, GMPs were plated into 10 cm tissue culture dishes and cultured in RPMI-1640 medium containing 10% FBS and supplemented with either 20 ng/mL M-CSF (for macrophage differentiation) or 20 ng/mL G-CSF (for granulocyte differentiation). GMP-derived macrophages were harvested on day 7 (medium was changed once on day 4) and GMP-derived granulocytes were harvested on day 3 and used for the further experiments.
Development of defined conditions for the long-term ex vivo expansion of hematopoietic stem/progenitor cells. To develop conditions for the long-term expansion of stem or progenitor cells of the hematopoietic system, screening was conducted to identify small molecules and growth factors/cytokines that can promote their ex vivo expansion (see FIG. 3A). Specifically, bone marrow cells isolated from adult C57BL/6 mice were plated into 96-well plates in serum-free N2B27 medium. Then a first-round small molecule screening was performed. It was reasoned that if a small molecule can block differentiation or promote expansion of stem cells, these stem cells should form colonies with a uniform cell morphology. […] Upon passaging, however, no new colonies were formed in culture with any of the 5 small molecule inhibitors. A second-round screening was conducted to identify growth factors/cytokines that could further improve the expansion of the colonies.
More importantly, these cells could be expanded robustly at clonal density (see FIG. 3G).
SCF/2i-expanded cells are GMPs. […]

Another test concerns human GMPs. Description: Ex vivo expansion of human GMPs sorted from cord blood. Type of test: cell-based. To be noted: added to SCF/GDC-0879. From the text:
(A) Growth curves of human GMPs. Human GMPs were FACS sorted from cord blood and cultured in the designated conditions. Cells were passaged every 3 days and replated into 12-well plates at a density of 1×10^5 cells/well. Data are represented as mean±SD from three independent experiments. (B) Structure of TN-2-30. (C) Representative phase-contrast images of human GMPs cultured in modified SCF/2i. P, passage number. (D) Sorted human GMPs were expanded in modified SCF/2i and induced to differentiate towards granulocytes by treatment with 30 ng/ml human G-CSF for 10 days. Differentiated cells were analyzed by Giemsa staining (upper panel) and flow cytometry (lower panel). Flow cytometry data are represented as mean±SD from three independent experiments. (E) Relative MPO activities of human GMPs and human GMP-derived granulocytes stimulated with or without PMA for 2 hours. Differentiated cells generated in (D) were plated into 96-well plates at a density of 2×10^4 cells/well and stimulated with or without PMA for 2 hours, after which MPO activities in the supernatants were measured. Data are represented as mean±SD from three independent experiments. […] (H) Differentiated cells generated in (D) and (F) were plated into 96-well plates at a density of 2×10^4 cells/well and stimulated with or without 500 ng/ml LPS for 6 hours, after which cytokine secretion in the supernatants was measured by ELISA. […]

Take `O=C(NCCCn1ccnc1)c1cc(-c2ccco2)on1` [SKL2001]: in the test with mouse GMPs (combined with SCF and GDC-0879), the “long-term expansion of a uniform cell population” value is listed as “allowed for the long-term expansion”. Besides, in the test with mouse GMPs (second screening, with GDC-0879), the “interaction with GDC-0879 in promoting expansion of the uniform round-shaped cells” value was “acted synergistically”. Besides, the “requirement for expansion of β-catenin knockout mouse GMPs” value in the test on mouse GMPs (β-catenin knockout mouse GMPs) is reported as “still required the addition of SKL2001”. Also, the “effect of addition on expansion of human GMPs” value with human GMPs is listed as “only marginally improved”.

For the origin of these results see patent US20240294876A1, “METHODS FOR THE EXPANSION OF HUMAN GRANULOCYTE-MACROPHAGE PROGENITORS AND APPLICATIONS THEREOF” (University of Southern California, priority 2021, published 2024).
